# Measurements as given in patent US20260167692A1, “POLYPEPTIDES AND RELATED SUBSTANCES AGAINST HAIR LOSS AND DERMATITIS, AND USES THEREOF” (SHENZHEN INSTITUTES OF ADVANCED TECHNOLOGY, priority 2023, published 2026).
# Where two headings read alike, the source gives them in different places. Where a SMILES comes first, the peptide text is derived from it. Where no end group is shown, it is not given here.
# T1: GPR158 receptor (Homo sapiens, UniProt Q5T848)
# T1 construct: expressed in transfected cells; host or cells: HeLa cell line highly expressing GPR158 (GPR158-HeLa)
# T1 sequence (Q5T848 24-1215): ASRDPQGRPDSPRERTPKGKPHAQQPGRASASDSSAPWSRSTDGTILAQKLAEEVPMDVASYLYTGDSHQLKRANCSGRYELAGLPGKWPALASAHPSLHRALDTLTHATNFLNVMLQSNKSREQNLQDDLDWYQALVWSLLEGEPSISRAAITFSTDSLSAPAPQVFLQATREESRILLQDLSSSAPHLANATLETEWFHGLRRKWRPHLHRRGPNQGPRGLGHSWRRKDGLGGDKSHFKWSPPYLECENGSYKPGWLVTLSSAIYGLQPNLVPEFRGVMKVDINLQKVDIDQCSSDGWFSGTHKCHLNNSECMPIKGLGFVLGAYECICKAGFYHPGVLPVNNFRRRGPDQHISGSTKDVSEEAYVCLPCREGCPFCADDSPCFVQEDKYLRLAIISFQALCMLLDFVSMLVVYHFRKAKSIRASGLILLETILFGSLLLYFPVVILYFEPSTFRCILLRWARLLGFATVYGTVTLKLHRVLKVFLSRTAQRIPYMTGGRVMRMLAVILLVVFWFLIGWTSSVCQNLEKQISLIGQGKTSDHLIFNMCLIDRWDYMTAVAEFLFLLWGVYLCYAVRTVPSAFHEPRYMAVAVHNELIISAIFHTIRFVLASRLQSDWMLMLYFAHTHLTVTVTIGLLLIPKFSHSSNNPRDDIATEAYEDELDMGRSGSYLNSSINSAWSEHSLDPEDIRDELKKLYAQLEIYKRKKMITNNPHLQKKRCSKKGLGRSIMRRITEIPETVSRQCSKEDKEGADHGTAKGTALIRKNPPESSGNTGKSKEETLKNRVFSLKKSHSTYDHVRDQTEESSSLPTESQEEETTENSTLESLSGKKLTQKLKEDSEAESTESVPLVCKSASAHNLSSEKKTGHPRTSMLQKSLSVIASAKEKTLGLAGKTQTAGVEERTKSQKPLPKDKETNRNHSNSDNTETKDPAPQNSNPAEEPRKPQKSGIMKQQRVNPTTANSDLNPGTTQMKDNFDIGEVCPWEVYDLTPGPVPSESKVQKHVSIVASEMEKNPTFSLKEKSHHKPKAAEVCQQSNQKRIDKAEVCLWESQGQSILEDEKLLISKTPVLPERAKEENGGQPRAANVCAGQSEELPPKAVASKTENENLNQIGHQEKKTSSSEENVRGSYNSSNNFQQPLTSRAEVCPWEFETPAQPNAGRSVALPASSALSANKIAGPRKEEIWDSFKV
# T2: human GPR158 receptor (on HeLa cells highly expressing a GPR158 receptor) (human, UniProt Q5T848 24-1215)
# T2 construct: whole, on cells; also called GPR158-HeLa cells; human GPR158 receptor cells
# T2 sequence (looked up): T1 sequence (Q5T848 24-1215)
# What was measured:
# [1] = test system: brains, ovaries, uteruses and adrenal glands of female mice; experiment: In vivo targeting of polypeptide-ICG/Cy5 probe in female mice (small animal imaging); set-up: species or system mouse; details: adult female mice, tail vein injection 100 μL of ICG- or Cy5-labeled polypeptide, imaging after 24 hours, vs control group
# Protocol: Adult female mice were intravenously injected via tail veins with the following: the polypeptide-ICG probe solution prepared in Example 2/Cy5-labeled polypeptide, an ICG solution (2 mM)/control polypeptide (a scrambled, irrelevant polypeptide), and a phosphate buffered saline (PBS). Each mouse received an injection volume of 100 μL. After 24 hours, detection was performed using a small animal imaging instrument.
# [2] = test system: brain, gonad and adrenal gland tissues of male mice; experiment: In vivo targeting of Cy5-labeled polypeptide in male mice (small animal imaging); set-up: species or system mouse; details: adult male mice, tail vein injection 100 μL of Cy5-labeled polypeptide, imaging after 24 hours, vs control group
# Protocol: Adult male mice were intravenously injected via tail veins with the following: the Cy5-labeled polypeptide prepared in Example 2, a control polypeptide (a scrambled, irrelevant polypeptide), and a PBS. Each mouse received an injection volume of 100 μL. After 24 hours, detection was performed using a small animal imaging instrument.
# [3] = test system: human primary dermal papilla cells; experiment: Cortisol-induced psychological stress hair loss cell model; assay type: cell-based; details: 1 μM cortisol, 24 hours
# Protocol: A fibroblast medium was used as a medium. […] Expression levels of cellular molecular markers (including 5α-dehydrogenase, GR, AR, CD200, IL-6, BCL2, and BAX) were detected after 24 hours.
# GPR158 receptor = molecular target: T1, GPR158 receptor; experiment: Binding of Cy5-labeled Ocn49/Ocn19 to HeLa cells highly expressing GPR158; assay type: cell-based; details: Cy5-labeled polypeptide incubated with GPR158-HeLa cells at 4° C., washed with PBS, FIG. 7
# Protocol: The polypeptide prepared in Example 1 was employed in this example, and a binding condition was observed via in vitro culture of the polypeptide with a Hela cell line highly expressing a GPR158 receptor.
# (§1) A specific method involved that Cy5-labeled full-length human osteocalcin Ocn49, truncated human osteocalcin Ocn19 (SEQ ID NO.1), and HeLa cells highly expressing GPR158 were incubated at 4° C., and cells were subsequently washed with PBS. Polypeptides incapable of binding to the cells were considered as non-specific ligands, while polypeptides capable of binding to the cells were considered as specifically binding ligands. An interaction between the polypeptides and the receptor was verified accordingly.
# male C57BL/6 mice = experiment: Androgenetic (seborrheic) hair loss mouse model (DHT); assay type: in vivo; details: 28 days
# Protocol: 7-week-old male C57BL/6 mice were treated with application of DHT (a modeling and experimental cycle of 28 days).
# Hair at a telogen phase on 2×2 cm areas of dorsa was removed, and the areas were depilated using a hair removal cream. A DHT solution (0.2%, w/v) was prepared in an ethanol solution (50%, v/v). Mice received topical application of the DHT solution (0.1 mL/cm^2) to the depilated areas, once a day, for 28 consecutive days. Mice in the other group received the polypeptide via oral gavage at a concentration of 0.5 mg/kg/day while applied with the DHT daily.
# [4] = test system: human primary dermal papilla cells; details: 10 nM DHT, 24 hours
# Protocol: A fibroblast medium was used as a medium.
# 24 hours after serum-starved cells were removed, human primary dermal papilla cells were treated with a high level of androgen by adding 10 nM DHT to a culture medium. Expression levels of cellular molecular markers (including 5α-dehydrogenase, AR, CD200, IL-6, BCL2, BAX, and FABP3) were detected after 24 hours. Homologous polypeptides from different species (the polypeptides from Example 7) were concurrently added for co-culture, and the expression levels of the cellular molecular markers were detected after 24 hours.
# [5] = molecular target: T2, human GPR158 receptor (on HeLa cells …); experiment: Cy5-labelled polypeptide incubated at 4 C with HeLa cells highly expressing GPR158, washed with PBS, fluorescence imaging
# Protocol: as §1
# [6] = topical DHT 0.2% w/v, 0.1 mL/cm^2 once a day
molecule,measurement,setting,value
"CC(C)C[C@H](NC(=O)[C@@H](N)Cc1ccc(O)cc1)C(=O)NCC(=O)N[C@@H](C)C(=O)N[C@@H](CO)C(=O)N[C@H](C(=O)N1CCC[C@H]1C(=O)N[C@@H](CO)C(=O)N1CCC[C@H]1C(=O)N[C@@H](CC(=O)O)C(=O)N1CCC[C@H]1C(=O)N[C@@H](CC(C)C)C(=O)N[C@@H](CCC(=O)O)C(=O)N1CCC[C@H]1C(=O)N[C@H](C(=O)O)[C@@H](C)O)C(C)C [mO15, YLGASVPSPDPLEPT] (H-YLGASVPSPDPLEPT-OH; N-terminus and C-terminus assumed)",fluorescence signals in brain tissues (brain entry),[1],enters the brains
same,"localization and binding in hypothalamus, ovary and uterus, and adrenal gland tissues (fluorescence signals)",[1],specific localization and binding capabilities
same,fluorescence signals in brain tissues (brain entry),[2],enters the brains
same,"localization and binding in brain, gonad (testis, epididymis) and adrenal gland tissues (fluorescence signals)",[2],specific localization and binding capabilities
C[C@]12CCC(=O)C=C1CC[C@@H]1[C@@H]2[C@@H](O)C[C@@]2(C)[C@H]1CC[C@]2(O)C(=O)CO [cortisol],"apoptosis of hair follicle cells (Caspase-3, BCL2, BAX)",[3],increased
same,expression level of hair follicle regression marker MMP-9,[3],increased
same,expression levels of STIP1 and inflammatory factors (TGF-β1 and IL-6),[3],increased
same,"expression levels of glucocorticoid receptor (GR), androgen receptor (AR), and 5α-reductase",[3],significantly increased
same,expression levels of hair growth marker GAS6 and hair follicle stem cell markers CD200 and CD133,[3],decreased
"YLYQWLGAPVPYPDPLEPR (listed as Homo sapiens) [Ocn19, human osteocalcin-derived peptide (truncated human osteocalcin)]",binding to the GPR158 receptor,GPR158 receptor,capable of binding to the GPR158 receptor
same,internalization of the GPR158 receptor,GPR158 receptor,induces internalization of the GPR158 receptor
Ocn49: full-length human osteocalcin (YLYQWLGAPVPYPDPLEPRREVCELNPDCDELADHIGFQEAYRRFYGPV),binding to the GPR158 receptor,GPR158 receptor,capable of binding to the GPR158 receptor
same,internalization of the GPR158 receptor,GPR158 receptor,induces internalization of the GPR158 receptor
"C[C@]12CCC(=O)C[C@@H]1CC[C@@H]1[C@@H]2CC[C@]2(C)[C@@H](O)CC[C@@H]12 [DHT, dihydrotestosterone]",expression level of AR in cervicodorsal skins (immunofluorescence),"male C57BL/6 mice; topical DHT 0.2% w/v once a day, FIG. 13",significantly increased
same,"genes related to lipases, adipocyte differentiation, and lipoproteins in cervicodorsal skins","male C57BL/6 mice; topical DHT 0.2% w/v once a day, FIG. 14",significantly increased
same,skin expression level of β-catenin gene,male C57BL/6 mice; [6],decrease
same,"skin expression levels of TGF-β, DKK1, IL-6, and AR genes",male C57BL/6 mice; [6],increase
same,"apoptosis of hair follicle cells (Caspase-3, BCL2, BAX)",[4],increased
same,expression level of hair follicle regression marker MMP-9,[4],increased
same,expression level of hair follicle stem cell marker CD200,[4],decreased
same,"expression levels of androgen receptor (AR), 5α-reductase, androgen synthesis-related enzymes (3βHSD and 17βHSD3)",[4],significantly increased
same,expression levels of fatty acid-binding protein FABP3 and adipogenic differentiation factor PPARγ,[4],increased
same,"expression levels of inflammatory factors (TGF-β, TNF-α, and IL-6)",[4],increased
"YLYQWLGAPVPYPDPLEPRREVCELNPDCDELADHIGFQEAYRRFYGPV (ligand, UniProt P02818 52-100, looked up, ends and bridges not checked; also: Cy5 label, site not given here, mature; also called human Ocn49) [full-length human osteocalcin Ocn49]",binding result,[5],binds
"YLYQWLGAPVPYPDPLEPR (not fully specified, also called human Ocn19) [truncated human osteocalcin Ocn19 (human osteocalcin-derived peptide)]",binding result,[5],binds
